Results published in patent publication US20060069132A1, “Azolecarboxamide herbicides” (priority 2004, published 2006).
Where two headings read alike, the source gives them in different places.

What was measured:
corn = experiment: Test B pre-/postemergence herbicide test; format: in vivo, Zea mays; conditions: Zea mays; for plant injury at 125 g/ha: 125 g ai/ha
In short: (§1)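 Greenhouse pot assay with simultaneous preemergence (treated seed) and postemergence (2–18 cm seedlings) applications of surfactant-containing, non-phytotoxic solvent formulations. Response scored visually 13–15 days later on a 0–100 scale, 100 meaning complete control.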

barnyardgrass [1] = experiment: Test B flooded paddy test; format: in vivo, Echinochloa crus-galli; conditions: Echinochloa crus-galli, 336 h, 1000 g ai/ha, scale 0 to 100 (0 no effect, 100 complete control), read-out: Barnyardgrass plant response rating
In short: (§2)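 Greenhouse test; postemergence application to plants at 1–4 leaves (2–18 cm); paddy species at 2 leaves; evaluated visually vs controls at 13–15 days; scale 0–100 (100 = complete control).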

Surinam grass = experiment: Test B pre-/postemergence herbicide test; format: in vivo, Urochloa decumbens; conditions: Urochloa decumbens; for pest or weed control at 125 g/ha: 125 g ai/ha; for pest or weed control at 500 g/ha: 500 g ai/ha
In short: as §1

morningglory = experiment: Test B pre-/postemergence herbicide test; format: in vivo, Ipomoea coccinea; conditions: Ipomoea, 336 h; for pest or weed control at 125 g/ha: 125 g ai/ha; for pest or weed control at 500 g/ha: 500 g ai/ha
In short: as §1

ducksalad = experiment: Test B flooded paddy test; format: in vivo, Heteranthera limosa; conditions: Heteranthera limosa, 336 h, 1000 g ai/ha, scale 0 to 100 (0 no effect, 100 complete control), read-out: Ducksalad plant response rating
In short: as §2

velvetleaf = experiment: Test B pre-/postemergence herbicide test; format: in vivo, Abutilon theophrasti; conditions: Abutilon theophrasti, 336 h; for pest or weed control at 125 g/ha: 125 g ai/ha; for pest or weed control at 500 g/ha: 500 g ai/ha
In short: as §1

rice = experiment: Test B flooded paddy test; format: in vivo, Oryza sativa; conditions: Oryza sativa, 336 h, 1000 g ai/ha, scale 0 to 100 (0 no effect, 100 complete control), read-out: Rice plant response rating
In short: as §2

blackgrass = experiment: Test B postemergence herbicide test; format: in vivo, Alopecurus myosuroides; conditions: Alopecurus myosuroides, post-emergence, 336 h, postemergence, visual rating, scale 0 (no effect) to 100 (complete control), read-out: Blackgrass plant response rating
In short: as §2

wheat = experiment: Test B postemergence herbicide test; format: in vivo, Triticum aestivum; conditions: Triticum aestivum, post-emergence, 336 h, postemergence, read-out: Wheat plant response rating
In short: (§3)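 Postemergence plants were sprayed with formulated test chemicals at 2 to 18 cm height (1- to 4-leaf stage); paddy species were grown to the 2-leaf stage. After 13 to 15 days in a greenhouse, injury was rated visually against untreated controls on a 0–100 scale (0 = no effect, 100 = complete control).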

giant foxtail = experiment: Test B pre-/postemergence herbicide test; format: in vivo, Setaria faberi; conditions: Setaria faberi, 336 h; for pest or weed control at 125 g/ha: 125 g ai/ha; for pest or weed control at 500 g/ha: 500 g ai/ha
In short: as §1

wild oat = experiment: Test B postemergence herbicide test; format: in vivo, Avena fatua; conditions: Avena fatua, post-emergence, 336 h, postemergence, read-out: Oat, Wild plant response rating
In short: as §3

[2] = system: small flower umbrella sedge; experiment: Test B flooded paddy test; format: in vivo, Cyperus difformis; conditions: Cyperus difformis, 336 h, 1000 g ai/ha, scale 0 to 100 (0 no effect, 100 complete control), read-out: Sedge, Umbrella plant response rating
In short: as §2

pigweed = experiment: Test B pre-/postemergence herbicide test; format: in vivo, Amaranthus retroflexus; conditions: Amaranthus retroflexus, 336 h; for pest or weed control at 125 g/ha: 125 g ai/ha; for pest or weed control at 500 g/ha: 500 g ai/ha
In short: as §1

large crabgrass = experiment: Test B pre-/postemergence herbicide test; format: in vivo, Digitaria sanguinalis; conditions: Digitaria sanguinalis; for pest or weed control at 125 g/ha: 125 g ai/ha; for pest or weed control at 500 g/ha: 500 g ai/ha
In short: as §1

barnyardgrass [3] = experiment: Test B pre-/postemergence herbicide test; format: in vivo, Echinochloa crus-galli; conditions: Echinochloa crus-galli; for pest or weed control at 125 g/ha: 125 g ai/ha; for pest or weed control at 500 g/ha: 500 g ai/ha
In short: as §1

[4] = 125 g ai/ha, visual rating, scale 0 (no effect) to 100 (complete control)
[5] = 500 g ai/ha, scale 0 to 100, 0 is no effect, 100 is complete control
[6] = post-emergence, postemergence, visual rating, scale 0 (no effect) to 100 (complete control), read-out: Barnyardgrass plant response rating

## CCNC(=O)c1cc(NC(=O)c2cn(C(C)(C)C)nc2CC)ccc1F [Compound 241, 1-(1,1-dimethylethyl)-3-ethyl-N-[3-[(ethylamino)carbonyl]-4-fluorophenyl]-1H-pyrazole-4-carboxamide]
corn; post-emergence, postemergence, visual rating, scale 0 (no effect) to 100 (complete control), read-out: Corn plant response rating
  plant injury at 125 g/ha: 0%
corn; post-emergence, postemergence, 500 g ai/ha, scale 0 to 100, 0 is no effect, 100 is complete control, read-out: Corn plant response rating
  plant injury at 500 g/ha: 10%
corn; pre-emergence, 0 = no effect, 100 = complete control, read-out: Corn plant response rating (0 to 100 scale)
  plant injury at 125 g/ha: 0%
corn; pre-emergence, 500 g ai/ha, visual rating, 0 = no effect, 100 = complete control
  Corn plant response rating (crop injury, 0 = no effect, 100 = complete kill) at 500 g/ha: 30%
Barnyardgrass [1]
  pest or weed control at 1000 g/ha: 80%
Surinam grass; post-emergence, postemergence, visual rating, scale 0 (no effect) to 100 (complete control), read-out: Surinam Grass plant response rating
  pest or weed control at 125 g/ha: 10%
Surinam grass; post-emergence, postemergence, scale 0 to 100, 0 is no effect, 100 is complete control, read-out: Surinam Grass plant response rating
  pest or weed control at 500 g/ha: 20%
Surinam grass; pre-emergence, 0 = no effect, 100 = complete control, read-out: Surinam Grass plant response rating (0 to 100 scale)
  pest or weed control at 125 g/ha: 10%
Surinam grass; pre-emergence, visual rating, 0 = no effect, 100 = complete control, read-out: Plant response rating, Surinam Grass
  pest or weed control at 500 g/ha: 90%
morningglory; post-emergence, postemergence, visual rating, scale 0 (no effect) to 100 (complete control), read-out: Morningglory plant response rating
  pest or weed control at 125 g/ha: 20%
morningglory; post-emergence, postemergence, scale 0 to 100, 0 is no effect, 100 is complete control, read-out: Morningglory plant response rating
  pest or weed control at 500 g/ha: 70%
morningglory; pre-emergence, 0 = no effect, 100 = complete control, read-out: Morningglory plant response rating (0 to 100 scale)
  pest or weed control at 125 g/ha: 0%
morningglory; pre-emergence, visual rating, 0 = no effect, 100 = complete control, read-out: Plant response rating, Morningglory
  pest or weed control at 500 g/ha: 0%
ducksalad
  pest or weed control at 1000 g/ha: 70%
velvetleaf; post-emergence, postemergence, visual rating, scale 0 (no effect) to 100 (complete control), read-out: Velvetleaf plant response rating
  pest or weed control at 125 g/ha: 10%
velvetleaf; post-emergence, postemergence, scale 0 to 100, 0 is no effect, 100 is complete control, read-out: Velvetleaf plant response rating
  pest or weed control at 500 g/ha: 10%
velvetleaf; pre-emergence, 0 = no effect, 100 = complete control, read-out: Velvetleaf plant response rating (0 to 100 scale)
  pest or weed control at 125 g/ha: 20%
velvetleaf; pre-emergence, visual rating, 0 = no effect, 100 = complete control, read-out: Plant response rating, Velvetleaf
  pest or weed control at 500 g/ha: 100%
rice
  plant injury at 1000 g/ha: 70%
blackgrass; 125 g ai/ha
  pest or weed control at 125 g/ha: 0%
blackgrass; 500 g ai/ha
  pest or weed control at 500 g/ha: 10%
wheat; [4]
  plant injury at 125 g/ha: 0%
wheat; [5]
  plant injury at 500 g/ha: 10%
Giant foxtail; post-emergence, postemergence, visual rating, scale 0 (no effect) to 100 (complete control), read-out: Foxtail, Giant plant response rating
  pest or weed control at 125 g/ha: 0%
Giant foxtail; post-emergence, postemergence, scale 0 to 100, 0 is no effect, 100 is complete control, read-out: Foxtail, Giant plant response rating
  pest or weed control at 500 g/ha: 0%
Giant foxtail; pre-emergence, 0 = no effect, 100 = complete control, read-out: Foxtail, Giant plant response rating (0 to 100 scale)
  pest or weed control at 125 g/ha: 10%
Giant foxtail; pre-emergence, visual rating, 0 = no effect, 100 = complete control, read-out: Plant response rating, Foxtail, Giant
  pest or weed control at 500 g/ha: 90%
Wild oat; [4]
  pest or weed control at 125 g/ha: 0%
Wild oat; [5]
  pest or weed control at 500 g/ha: 20%
[2]
  pest or weed control at 1000 g/ha: 80%
pigweed; post-emergence, postemergence, visual rating, scale 0 (no effect) to 100 (complete control), read-out: Pigweed plant response rating
  pest or weed control at 125 g/ha: 30%
pigweed; post-emergence, postemergence, scale 0 to 100, 0 is no effect, 100 is complete control, read-out: Pigweed plant response rating
  pest or weed control at 500 g/ha: 50%
pigweed; pre-emergence, 0 = no effect, 100 = complete control, read-out: Pigweed plant response rating (0 to 100 scale)
  pest or weed control at 125 g/ha: 100%
pigweed; pre-emergence, visual rating, 0 = no effect, 100 = complete control, read-out: Plant response rating, Pigweed
  pest or weed control at 500 g/ha: 100%
Large crabgrass; post-emergence, postemergence, visual rating, scale 0 (no effect) to 100 (complete control), read-out: Crabgrass, Large plant response rating
  pest or weed control at 125 g/ha: 0%
Large crabgrass; post-emergence, postemergence, scale 0 to 100, 0 is no effect, 100 is complete control, read-out: Crabgrass, Large plant response rating
  pest or weed control at 500 g/ha: 10%
Large crabgrass; pre-emergence, 0 = no effect, 100 = complete control, read-out: Crabgrass, Large plant response rating (0 to 100 scale)
  pest or weed control at 125 g/ha: 90%
Large crabgrass; pre-emergence, visual rating, 0 = no effect, 100 = complete control, read-out: Plant response rating, Crabgrass, Large
  pest or weed control at 500 g/ha: 100%
Barnyardgrass [3]; [6]
  pest or weed control at 125 g/ha: 0%
  pest or weed control at 500 g/ha: 0%
Barnyardgrass [3]; pre-emergence, 0 = no effect, 100 = complete control, read-out: Barnyardgrass plant response rating (0 to 100 scale)
  pest or weed control at 125 g/ha: 0%
Barnyardgrass [3]; pre-emergence, visual rating, 0 = no effect, 100 = complete control, read-out: Plant response rating, Barnyardgrass
  pest or weed control at 500 g/ha: 80%
